The results in this text go back to US11780893B2, “Kv1.3 blockers” (Zealand Pharma A/S, priority 2019, dated 2023).

Bridge positions count the residues as written; N and C are the ends. Peptide text beside a SMILES is read from it.

The target of this experiment is T1, human Kv1.3 voltage-gated K+ channel (Homo sapiens, UniProt P22001).
T1 construct: host or cells: CHO-DUKX
T1 sequence (P22001 whole entry): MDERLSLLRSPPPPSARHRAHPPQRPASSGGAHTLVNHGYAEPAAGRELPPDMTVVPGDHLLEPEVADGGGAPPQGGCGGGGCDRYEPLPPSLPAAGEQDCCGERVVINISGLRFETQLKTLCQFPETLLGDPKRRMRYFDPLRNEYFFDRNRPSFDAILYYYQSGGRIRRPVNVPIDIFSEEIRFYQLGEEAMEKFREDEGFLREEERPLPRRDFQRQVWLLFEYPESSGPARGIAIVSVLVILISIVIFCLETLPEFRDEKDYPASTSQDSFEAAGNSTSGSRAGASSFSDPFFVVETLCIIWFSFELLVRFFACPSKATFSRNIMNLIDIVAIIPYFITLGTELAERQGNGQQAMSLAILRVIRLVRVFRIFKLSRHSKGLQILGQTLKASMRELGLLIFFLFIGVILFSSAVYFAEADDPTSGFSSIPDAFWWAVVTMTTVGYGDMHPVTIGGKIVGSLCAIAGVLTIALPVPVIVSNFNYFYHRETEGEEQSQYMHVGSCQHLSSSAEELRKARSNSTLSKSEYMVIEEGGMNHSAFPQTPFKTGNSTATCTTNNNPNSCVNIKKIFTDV
The experiment in a line: cell-based. The conditions noted are these: inhibition of thallium flux, CHO-DUKX cells with human Kv1.3; read-out: IC50.
Regarding `CC[C@H](C)[C@@H]1NC(=O)[C@H](C)NC(=O)[C@H](CCCCN)NC(=O)[C@H](CC(C)C)NC(=O)[C@@H]2CSSC[C@@H](C(=O)N[C@@H](Cc3ccc(O)cc3)C(=O)N3CCC[C@H]3C(=O)N[C@@H](CCCNC(=N)N)C(=O)O)NC(=O)[C@H](CCCCN)NC(=O)[C@@H]3CSSC[C@H](NC(=O)[C@H](CCC(=O)O)NC(=O)[C@H](C(C)C)NC(=O)[C@H](CO)NC(=O)[C@H](C)NC(=O)[C@H](CO)NC(=O)[C@@H](NC(=O)[C@H](CCCNC(=N)N)NC(=O)[C@H](CCSC)NC(=O)[C@H](CC(=O)O)NC(=O)[C@H](CCSC)NC(=O)[C@@H](N)CC(N)=O)CSSC[C@H](NC(=O)[C@H](CCCCN)NC(=O)CNC(=O)[C@H](Cc4ccccc4)NC(=O)CNC(=O)[C@H](CCCNC(=N)N)NC(=O)CNC1=O)C(=O)N[C@@H](CCSC)C(=O)N[C@@H](CC(N)=O)C(=O)N[C@@H](CCCCN)C(=O)N[C@@H](CCCCN)C(=O)N3)C(=O)N[C@@H](CCCCN)C(=O)N[C@@H](CCC(N)=O)C(=O)N[C@@H](CCCCN)C(=O)N2` [Compound 4] (H-NMDMRCSASVECKQKCLKAIGRGFGKCMNKKCKCYPR-OH; disulfide 6-27, 12-32, 16-34), the IC50 – broadly, the concentration that gives 50% inhibition – was determined as 0.29 nM.

Consider `CC[C@H](C)[C@@H]1NC(=O)[C@H](C)NC(=O)[C@H](CCCCN)NC(=O)[C@H](CC(C)C)NC(=O)[C@@H]2CSSC[C@@H](C(=O)N[C@@H](Cc3ccc(O)cc3)C(=O)N3CCC[C@H]3C(=O)N[C@@H](CCCNC(=N)N)C(=O)O)NC(=O)[C@H](CCCCN)NC(=O)[C@@H]3CSSC[C@H](NC(=O)[C@H](CCC(=O)O)NC(=O)[C@H](C(C)C)NC(=O)[C@H](CO)NC(=O)[C@H](C)NC(=O)[C@H](CO)NC(=O)[C@@H](NC(=O)[C@H](CCCNC(=N)N)NC(=O)[C@H](CCSC)NC(=O)[C@@H](N)CC(=O)O)CSSC[C@H](NC(=O)[C@H](CCCCN)NC(=O)CNC(=O)[C@H](Cc4ccccc4)NC(=O)[C@H]([C@@H](C)CC)NC(=O)[C@H](CO)NC(=O)CNC1=O)C(=O)N[C@@H](CCSC)C(=O)N[C@@H](CC(N)=O)C(=O)N[C@@H](CCCCN)C(=O)N[C@@H](CCCCN)C(=O)N3)C(=O)N[C@@H](CCCCN)C(=O)N[C@@H](CCC(N)=O)C(=O)N[C@@H](CCCCN)C(=O)N2` [Compound 6] (H-DMRCSASVECKQKCLKAIGSIFGKCMNKKCKCYPR-OH; disulfide 4-25, 10-30, 14-32), for which the IC50 worked out at 0.34 nM.

Take `CC[C@H](C)[C@@H]1NC(=O)[C@H](C)NC(=O)[C@H](CCCCN)NC(=O)[C@H](CC(C)C)NC(=O)[C@@H]2CSSC[C@@H](C(=O)N[C@@H](Cc3ccc(O)cc3)C(=O)N3CCC[C@H]3C(=O)N[C@@H](CCCNC(=N)N)C(N)=O)NC(=O)[C@H](CCCCN)NC(=O)[C@@H]3CSSC[C@H](NC(=O)[C@H](CCC(=O)O)NC(=O)[C@H](C(C)C)NC(=O)[C@H](CO)NC(=O)[C@H](C)NC(=O)[C@H](CO)NC(=O)[C@@H](NC(=O)[C@H](CCCNC(=N)N)NC(=O)[C@H](CCSC)NC(=O)[C@H](CC(=O)O)NC(=O)[C@H](CCSC)NC(=O)[C@@H](N)CC(N)=O)CSSC[C@H](NC(=O)[C@H](CCCCN)NC(=O)CNC(=O)[C@H](Cc4ccccc4)NC(=O)[C@H]([C@@H](C)CC)NC(=O)[C@H](CO)NC(=O)CNC1=O)C(=O)N[C@@H](CCSC)C(=O)N[C@@H](CC(N)=O)C(=O)N[C@@H](CCCCN)C(=O)N[C@@H](CCCCN)C(=O)N3)C(=O)N[C@@H](CCCCN)C(=O)N[C@@H](CCC(N)=O)C(=O)N[C@@H](CCCCN)C(=O)N2` [Compound 7] (H-NMDMRCSASVECKQKCLKAIGSIFGKCMNKKCKCYPR-NH2; disulfide 6-27, 12-32, 16-34): the IC50 stood at 0.12 nM.
